Columns and labels:
[1] = test system: adenosine monophosphate-activated protein kinase (AMPK); assay: Activation of AMPK (p-AMPK/AMPK, Western blotting) in myotube cell model L6-GLUT4myc; type: cell-based, rat; conditions: HPH-15 at 1/200th the concentration of metformin (2 mM), 24 hours
Source text: The tissues involved in glucose uptake and glucose metabolism are mainly the muscle, the liver, and the fat. Thus, using a cell model of each tissue, the relationship between HPH-15 and activation of adenosine monophosphate-activated protein kinase (AMPK) was examined. Note that AMPK is known as a therapeutic target for diabetes. AMPK acts as an energy sensor, and when it detects a decrease in ATP serving as an intracellular energy source, it suppresses the synthesis of glucose, fats, and proteins and produces ATP. Exercise therapy for diabetes is based on this mechanism. Further, AMPK has been drawing attention as a factor that improves insulin resistance.
As a muscle cell model to be used, rat myoblast cell line L6-GLUT4myc (myoblasts expressing myc-tagged GLUT4) was cultured in a minimal essential medium a-MEM (10% FBS) and differentiated into myotubes. Differentiation into myotubes was performed by culturing L6-GLUT4 cells in a-MEM (10% FBS) and then changing the medium to a-MEM (2% FBS), followed by culturing for 6 days. Human HepG2 cell line was used as a liver cell model. As an adipocyte model to be used, mouse 3T3-L1 preadipocyte cell line was differentiated into adipocytes. Differentiation into adipocytes was performed as follows. […]
Next, bands of AMPK and p-AMPK were quantified using ImageJ to determine a ratio of activated AMPK relative to AMPK (p-AMPK/AMPK).

[2] = test system: myotube cell model L6-GLUT4myc, liver cell model HepG2 cells, adipocyte model 3T3-L1; assay: Production of lactic acid in cells; type: cell-based, rat, human, mouse; conditions: HPH-15 10 μM or 50 μM vs metformin 2 mM; 24 hours
Description: There is a concern that a therapeutic drug of diabetes may cause lactic acidosis due to the production of lactic acid, requiring caution, especially for patients with chronic renal failure or the elderly. Therefore, the production of lactic acid when HPH-15 was used was examined.
The myotube cell model L6-GLUT4myc, the liver cell model HepG2 cells, and the adipocyte model 3T3-L1 used in Example 1 were each seeded onto a 24-well plate (1×10^5 cells/well, […] of culture liquid) and cultured overnight. Then, a DMSO solution (1%) containing HPH-15 (final concentration: 10 μM or 50 μM) or metformin (final concentration: 2 mM) was added to the medium, and the cells were further cultured for 24 hours. As a control, only DMSO solution (1%) was added, and the cells were cultured for 24 hours in the same manner. Next, the amount of lactic acid accumulated in the cells was measured using the Lactate Assay Kit-WST (Dojindo Laboratories).

[3] = test system: myotube cell model L6-GLUT4myc, liver cell model HepG2 cells, adipocyte model 3T3-L1; assay: Glucose uptake (2-deoxyglucose) into cells; type: cell-based, rat, human, mouse; conditions: HPH-15 10 μM or 50 μM vs metformin 2 mM; 24 hours; 2-deoxyglucose 2 mM, 20 minutes
Description: The uptake of glucose into cells by HPH-15 was examined using the myotube cell model L6-GLUT4myc, the liver cell model HepG2 cells, and the adipocyte model 3T3-L1.
The myotube cell model L6-GLUT4myc, the liver cell model HepG2 cells, and the adipocyte model 3T3-L1 used in Example 1 were each seeded onto a 24-well plate (1×10^5 cells/well, […] of culture liquid) and cultured overnight. Then, a DMSO solution (1%) containing HPH-15 (final concentration: 10 μM or 50 μM), metformin (final concentration: 2 mM), or insulin (final concentration: 100 nM) was added to the medium, and the cells were further cultured for 24 hours. As a control, only DMSO solution (1%) was added, and the cells were cultured for 24 hours in the same manner. Next, the cells were washed with KRPH buffer (containing 2% BSA) and cultured in the presence of 2-deoxyglucose (final concentration: 2 mM, FUJIFILM Wako Pure Chemical Corp.) for 20 minutes at 37° C. The uptake of 2-deoxyglucose was stopped by washing the cells with cold PBS, and the amount of glucose taken up into the cells was measured using a Glucose Cellular Uptake Measurement Kit (Cosmo Bio).

[4] = Body weight during administration in mouse; type: in vivo; conditions: HPH-15 10 mg/kg or 100 mg/kg orally once a day for 28 days; high-fat diet
Description: Four-week-old […] mice (CLEA Japan, Inc.) were fed a high-fat diet HFD (CLEA Japan, Inc.) for two months to prepare high-fat diet-induced obesity model mice. Then, HPH-15 (10 mg/kg or 100 mg/kg, […]) dissolved in olive oil (Kenei Pharmaceutical Co., Ltd.) or metformin (300 mg/kg, […]) was orally administered once a day for 28 days. Olive oil alone was administered as a control. Body weight, random blood glucose levels, and fasting blood glucose levels were measured every 7 days using a blood glucose meter Glutest Aqua (Sanwa Kagaku Kenkyusho Co., Ltd.). Fasting blood glucose levels were measured after 12-hour fasting. Note that, during the drug administration period, the mice were fed the high-fat diet HFD. The results of random blood glucose levels (mg/dl) are shown in FIG. 7A, and the results of fasting blood glucose levels (mg/dl) are shown in FIG. 7B.

## CC(C)(C)SCCNC(=S)c1cccc(C(=S)NCCSC(C)(C)C)n1 [HPH-15]
[1]
  AMPK activation (p-AMPK/AMPK) compared to when metformin was used: approximately 75%
[2]
  production of lactic acid: equal to or less than that by metformin
[3]
  glucose uptake amount: increased the glucose uptake amount to the same extent as or to a greater extent than metformin
[4]
  changes in body weight during the test period: no significant differences were observed
